In the kinase profiling compilation of Christmann-Franck et al. (2016):
Several values for one entry are separate records, joined by “and”; a condition that tells them apart may be missing. Equal values may be shown once.

Experiments:
Test in all cases: Caliper, Mobility shift assay off-chip
SGK1 (human) = SGK1 (human) (UniProt O00141)
PRKCA (human) = PRKCA (human) (UniProt P17252)
MAPKAPK2 (human) = MAPKAPK2 (human) (UniProt P49137)
CAMK2G (human) = CAMK2G (human) (UniProt Q13555)
PRKCB2 (human) = PRKCB2 (human) (UniProt P05771)
RPS6KA5 KD1 KD2 (human) = RPS6KA5 KD1 KD2 (human) (UniProt O75582)
FGFR4 (human) = FGFR4 (human) (UniProt P22455)
Sequence of FGFR4 (human) (P22455 whole entry, looked up): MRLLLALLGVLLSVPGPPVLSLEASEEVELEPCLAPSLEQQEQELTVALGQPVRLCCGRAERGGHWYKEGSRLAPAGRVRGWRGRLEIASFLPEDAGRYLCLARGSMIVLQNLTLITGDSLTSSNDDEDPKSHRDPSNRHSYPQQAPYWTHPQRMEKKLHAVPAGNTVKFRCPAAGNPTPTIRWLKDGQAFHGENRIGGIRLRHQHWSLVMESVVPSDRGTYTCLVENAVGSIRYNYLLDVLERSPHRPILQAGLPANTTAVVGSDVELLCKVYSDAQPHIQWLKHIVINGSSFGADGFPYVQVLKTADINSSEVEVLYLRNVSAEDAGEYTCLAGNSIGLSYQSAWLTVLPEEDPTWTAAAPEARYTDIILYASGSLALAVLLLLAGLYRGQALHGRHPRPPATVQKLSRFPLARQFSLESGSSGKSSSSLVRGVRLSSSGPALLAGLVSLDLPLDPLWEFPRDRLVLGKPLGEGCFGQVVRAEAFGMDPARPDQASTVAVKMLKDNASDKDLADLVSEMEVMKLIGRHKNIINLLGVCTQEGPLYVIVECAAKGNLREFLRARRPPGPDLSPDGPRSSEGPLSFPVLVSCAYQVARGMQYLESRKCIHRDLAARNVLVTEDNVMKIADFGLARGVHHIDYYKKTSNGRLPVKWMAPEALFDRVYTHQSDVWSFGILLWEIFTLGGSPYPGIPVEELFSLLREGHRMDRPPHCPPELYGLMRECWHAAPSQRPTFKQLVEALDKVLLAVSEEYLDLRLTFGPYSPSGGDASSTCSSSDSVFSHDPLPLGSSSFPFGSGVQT

IGF1R (human) = IGF1R (human) (UniProt P08069)
PRKCQ (human) = PRKCQ (human) (UniProt Q04759)
SGK2 (human) = SGK2 (human) (UniProt Q9HBY8)
SGK3 (human) = SGK3 (human) (UniProt Q96BR1)
Sequence of SGK3 (human) (Q96BR1 whole entry, looked up): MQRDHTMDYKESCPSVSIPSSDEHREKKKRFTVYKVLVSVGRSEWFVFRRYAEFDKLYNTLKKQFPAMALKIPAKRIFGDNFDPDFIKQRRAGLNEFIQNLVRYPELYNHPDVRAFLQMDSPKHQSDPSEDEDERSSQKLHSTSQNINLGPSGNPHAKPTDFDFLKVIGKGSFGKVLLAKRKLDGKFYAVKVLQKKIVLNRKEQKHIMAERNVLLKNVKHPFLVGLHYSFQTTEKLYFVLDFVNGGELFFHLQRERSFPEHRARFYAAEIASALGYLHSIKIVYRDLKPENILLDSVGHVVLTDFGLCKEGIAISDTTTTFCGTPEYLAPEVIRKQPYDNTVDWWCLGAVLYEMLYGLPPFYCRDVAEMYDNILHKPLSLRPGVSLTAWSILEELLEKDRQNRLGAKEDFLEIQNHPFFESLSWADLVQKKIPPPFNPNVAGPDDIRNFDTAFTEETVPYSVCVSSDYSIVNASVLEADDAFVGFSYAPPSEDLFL

BRSK1 (human) = BRSK1 (human) (UniProt Q8TDC3)
PRKG1 (human) = PRKG1 (human) (UniProt Q13976)
AKT3 (human) = AKT3 (human) (UniProt Q9Y243)
RPS6KB1 (human) = RPS6KB1 (human) (UniProt P23443)
MAPK3 (human) = MAPK3 (human) (UniProt P27361)
Sequence of MAPK3 (human) (P27361 whole entry, looked up): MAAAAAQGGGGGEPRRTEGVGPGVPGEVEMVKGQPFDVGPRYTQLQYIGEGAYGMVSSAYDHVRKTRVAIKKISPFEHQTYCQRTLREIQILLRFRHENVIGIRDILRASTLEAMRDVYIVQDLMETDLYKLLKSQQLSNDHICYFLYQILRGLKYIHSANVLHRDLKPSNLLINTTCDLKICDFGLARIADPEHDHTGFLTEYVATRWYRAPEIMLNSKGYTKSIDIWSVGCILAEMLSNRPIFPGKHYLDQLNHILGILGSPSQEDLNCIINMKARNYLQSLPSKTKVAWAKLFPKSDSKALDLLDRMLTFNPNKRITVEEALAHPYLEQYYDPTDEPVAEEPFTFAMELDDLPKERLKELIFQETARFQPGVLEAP

CSNK1A1 (human) = CSNK1A1 (human) (UniProt P48729)
PRKD1 (human) = PRKD1 (human) (UniProt Q15139)
EGFR (human) = EGFR (human) (UniProt P00533)
PRKCH (human) = PRKCH (human) (UniProt P24723)
Sequence of PRKCH (human) (P24723 whole entry, looked up): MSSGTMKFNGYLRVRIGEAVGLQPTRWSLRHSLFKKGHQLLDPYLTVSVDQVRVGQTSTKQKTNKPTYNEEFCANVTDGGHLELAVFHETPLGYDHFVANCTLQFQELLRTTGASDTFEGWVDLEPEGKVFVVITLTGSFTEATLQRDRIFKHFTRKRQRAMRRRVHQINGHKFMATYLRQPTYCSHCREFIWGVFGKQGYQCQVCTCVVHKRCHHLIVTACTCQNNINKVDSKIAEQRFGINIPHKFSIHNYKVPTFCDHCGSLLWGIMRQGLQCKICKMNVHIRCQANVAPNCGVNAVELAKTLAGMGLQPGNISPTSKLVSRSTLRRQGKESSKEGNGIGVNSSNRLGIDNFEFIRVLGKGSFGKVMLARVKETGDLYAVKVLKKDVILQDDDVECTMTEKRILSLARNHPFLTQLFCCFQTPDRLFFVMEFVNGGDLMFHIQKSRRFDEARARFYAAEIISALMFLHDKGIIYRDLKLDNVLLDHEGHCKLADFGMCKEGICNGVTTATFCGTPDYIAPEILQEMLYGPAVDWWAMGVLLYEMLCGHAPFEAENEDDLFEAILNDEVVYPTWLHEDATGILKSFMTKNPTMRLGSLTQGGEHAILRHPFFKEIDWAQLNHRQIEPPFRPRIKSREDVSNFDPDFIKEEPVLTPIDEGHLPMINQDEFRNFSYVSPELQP

CSNK1D (human) = CSNK1D (human) (UniProt P48730)
AURKA (human) = AURKA (human) (UniProt O14965)
PRKCG (human) = PRKCG (human) (UniProt P05129)
BMX (human) = BMX (human) (UniProt P51813)
Sequence of BMX (human) (P51813 whole entry, looked up): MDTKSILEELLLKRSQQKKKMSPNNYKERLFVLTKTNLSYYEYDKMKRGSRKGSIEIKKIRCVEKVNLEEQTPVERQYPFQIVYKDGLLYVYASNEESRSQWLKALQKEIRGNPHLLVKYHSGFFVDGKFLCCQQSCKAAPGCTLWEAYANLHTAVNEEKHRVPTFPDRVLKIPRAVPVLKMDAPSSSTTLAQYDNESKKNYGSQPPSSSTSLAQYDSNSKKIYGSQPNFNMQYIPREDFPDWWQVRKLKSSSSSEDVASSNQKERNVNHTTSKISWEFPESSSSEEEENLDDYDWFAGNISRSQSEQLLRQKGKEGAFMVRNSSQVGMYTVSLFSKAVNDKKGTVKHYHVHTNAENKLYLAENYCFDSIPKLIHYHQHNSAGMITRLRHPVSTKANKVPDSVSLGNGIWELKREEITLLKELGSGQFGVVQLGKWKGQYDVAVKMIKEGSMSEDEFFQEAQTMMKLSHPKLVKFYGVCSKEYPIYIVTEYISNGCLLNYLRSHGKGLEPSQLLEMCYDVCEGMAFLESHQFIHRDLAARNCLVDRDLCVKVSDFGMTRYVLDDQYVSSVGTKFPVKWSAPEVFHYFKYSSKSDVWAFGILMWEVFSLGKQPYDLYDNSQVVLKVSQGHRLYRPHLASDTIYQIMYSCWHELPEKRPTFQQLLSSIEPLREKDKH

MARK1 (human) = MARK1 (human) (UniProt Q9P0L2)
RPS6KA4 KD1 KD2 (human) = RPS6KA4 KD1 KD2 (human) (UniProt O75676)
[1] = test system: ABL1 (human), P00519 [Q252H]
FER (human) = FER (human) (UniProt P16591)
FYN (human) = FYN (human) (UniProt P06241)
ABL1 (human) = ABL1 (human) (UniProt P00519)
PRKCZ (human) = PRKCZ (human) (UniProt Q05513)
Sequence of PRKCZ (human) (Q05513 whole entry, looked up): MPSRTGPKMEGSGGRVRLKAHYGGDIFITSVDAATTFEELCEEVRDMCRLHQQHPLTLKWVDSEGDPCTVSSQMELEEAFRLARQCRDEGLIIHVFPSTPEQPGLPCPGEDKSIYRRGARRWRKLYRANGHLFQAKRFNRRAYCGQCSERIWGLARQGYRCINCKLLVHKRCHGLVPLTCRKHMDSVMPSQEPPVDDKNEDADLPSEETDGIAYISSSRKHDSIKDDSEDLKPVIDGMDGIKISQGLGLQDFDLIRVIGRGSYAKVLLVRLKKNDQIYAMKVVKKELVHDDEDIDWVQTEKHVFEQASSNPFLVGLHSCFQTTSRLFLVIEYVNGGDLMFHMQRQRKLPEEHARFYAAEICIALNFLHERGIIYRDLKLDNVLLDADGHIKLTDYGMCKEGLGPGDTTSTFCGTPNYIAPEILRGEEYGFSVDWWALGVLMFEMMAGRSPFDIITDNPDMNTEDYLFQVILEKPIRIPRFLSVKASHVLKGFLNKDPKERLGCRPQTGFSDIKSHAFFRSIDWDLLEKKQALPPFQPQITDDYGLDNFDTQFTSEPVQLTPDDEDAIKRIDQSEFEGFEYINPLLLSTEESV

MAPK14 (human) = MAPK14 (human) (UniProt Q16539)
Sequence of MAPK14 (human) (Q16539 whole entry, looked up): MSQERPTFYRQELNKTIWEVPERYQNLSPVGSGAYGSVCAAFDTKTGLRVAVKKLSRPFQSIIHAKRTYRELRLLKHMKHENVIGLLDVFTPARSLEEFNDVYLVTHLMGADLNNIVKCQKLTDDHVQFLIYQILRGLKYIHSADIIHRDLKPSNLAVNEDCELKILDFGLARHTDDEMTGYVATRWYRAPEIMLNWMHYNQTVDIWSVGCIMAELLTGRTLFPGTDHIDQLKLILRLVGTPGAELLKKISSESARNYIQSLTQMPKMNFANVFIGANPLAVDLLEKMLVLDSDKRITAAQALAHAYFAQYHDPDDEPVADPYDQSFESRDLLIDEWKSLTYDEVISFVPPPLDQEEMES

BTK (human) = BTK (human) (UniProt Q06187)
MARK3 (human) = MARK3 (human) (UniProt P27448)
Sequence of MARK3 (human) (P27448 whole entry, looked up): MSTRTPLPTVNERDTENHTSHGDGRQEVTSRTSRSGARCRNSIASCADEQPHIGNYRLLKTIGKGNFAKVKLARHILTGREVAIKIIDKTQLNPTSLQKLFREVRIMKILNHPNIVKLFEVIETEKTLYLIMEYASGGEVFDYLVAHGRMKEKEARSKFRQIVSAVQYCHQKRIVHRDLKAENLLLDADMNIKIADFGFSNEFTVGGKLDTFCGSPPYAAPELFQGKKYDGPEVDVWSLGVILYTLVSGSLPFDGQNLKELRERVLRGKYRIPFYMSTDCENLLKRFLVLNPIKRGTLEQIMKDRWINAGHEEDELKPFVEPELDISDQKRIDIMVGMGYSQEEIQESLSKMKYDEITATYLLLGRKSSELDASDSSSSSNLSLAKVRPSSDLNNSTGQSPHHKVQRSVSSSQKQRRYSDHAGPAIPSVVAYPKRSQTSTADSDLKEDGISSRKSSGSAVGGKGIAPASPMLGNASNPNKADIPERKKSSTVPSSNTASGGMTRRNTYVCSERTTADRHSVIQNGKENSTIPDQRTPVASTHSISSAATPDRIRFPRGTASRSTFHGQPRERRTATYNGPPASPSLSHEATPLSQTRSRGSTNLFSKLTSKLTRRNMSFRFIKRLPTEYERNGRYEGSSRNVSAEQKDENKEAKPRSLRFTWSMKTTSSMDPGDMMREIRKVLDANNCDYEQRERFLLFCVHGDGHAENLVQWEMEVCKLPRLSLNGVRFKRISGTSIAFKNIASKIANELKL

## O=c1c2cc(CS(=O)(=O)NCc3ccccn3)ccc2ccc2ncc(C3CCNCC3)cc12
SGK1 (human); compound 0.01 µM
  inhibition: -3.6%
SGK1 (human); compound 0.1 µM
  inhibition: -31.9%
PRKCA (human); compound 0.01 µM
  inhibition: 0.2%
PRKCA (human); compound 0.1 µM
  inhibition: 1.3%
MAPKAPK2 (human); compound 0.01 µM
  inhibition: 0.4%
MAPKAPK2 (human); compound 0.1 µM
  inhibition: -1.9%
CAMK2G (human); compound 0.01 µM
  inhibition: 6.3%
CAMK2G (human); compound 0.1 µM
  inhibition: 2.1%
PRKCB2 (human); compound 0.01 µM
  inhibition: 14.8%
PRKCB2 (human); compound 0.1 µM
  inhibition: 6%
RPS6KA5 KD1 KD2 (human); compound 0.01 µM
  inhibition: -5.1%
RPS6KA5 KD1 KD2 (human); compound 0.1 µM
  inhibition: -2.9%
FGFR4 (human); compound 0.01 µM
  inhibition: 12.6%
FGFR4 (human); compound 0.1 µM
  inhibition: -18.4%
IGF1R (human); compound 0.01 µM
  inhibition: 5%
IGF1R (human); compound 0.1 µM
  inhibition: -2.7%
PRKCQ (human); compound 0.01 µM
  inhibition: 3.4%
PRKCQ (human); compound 0.1 µM
  inhibition: -3.8%
SGK2 (human); compound 0.01 µM
  inhibition: -4.2%
SGK2 (human); compound 0.1 µM
  inhibition: 4.7%
SGK3 (human); compound 0.01 µM
  inhibition: -13.2%
SGK3 (human); compound 0.1 µM
  inhibition: -7.3%
BRSK1 (human); compound 0.01 µM
  inhibition: 9.9%
BRSK1 (human); compound 0.1 µM
  inhibition: -7.5%
PRKG1 (human); compound 0.01 µM
  inhibition: 2% and 2.1%
PRKG1 (human); compound 0.1 µM
  inhibition: 3.8% and -4.6%
AKT3 (human); compound 0.01 µM
  inhibition: -6.5%
AKT3 (human); compound 0.1 µM
  inhibition: 5.2%
RPS6KB1 (human); compound 0.01 µM
  inhibition: 6.8%
RPS6KB1 (human); compound 0.1 µM
  inhibition: -1.3%
MAPK3 (human); compound 0.01 µM
  inhibition: -1%
MAPK3 (human); compound 0.1 µM
  inhibition: 1.7%
CSNK1A1 (human); compound 0.01 µM
  inhibition: 1.4%
CSNK1A1 (human); compound 0.1 µM
  inhibition: -0.5%
PRKD1 (human); compound 0.01 µM
  inhibition: -2.8%
PRKD1 (human); compound 0.1 µM
  inhibition: -4.1%
EGFR (human); compound 0.01 µM
  inhibition: -19.5%
EGFR (human); compound 0.1 µM
  inhibition: -36.5%
PRKCH (human); compound 0.01 µM
  inhibition: -4.3%
PRKCH (human); compound 0.1 µM
  inhibition: -6.9%
CSNK1D (human); compound 0.01 µM
  inhibition: 2%
CSNK1D (human); compound 0.1 µM
  inhibition: -2.8%
AURKA (human); compound 0.01 µM
  inhibition: -4.6%
AURKA (human); compound 0.1 µM
  inhibition: 13.1%
PRKCG (human); compound 0.01 µM
  inhibition: -3.2%
PRKCG (human); compound 0.1 µM
  inhibition: 1.8%
BMX (human); compound 0.01 µM
  inhibition: -12.1%
BMX (human); compound 0.1 µM
  inhibition: -3.8%
MARK1 (human); compound 0.01 µM
  inhibition: -0.1%
MARK1 (human); compound 0.1 µM
  inhibition: -2.9%
RPS6KA4 KD1 KD2 (human); compound 0.01 µM
  inhibition: 9.3%
RPS6KA4 KD1 KD2 (human); compound 0.1 µM
  inhibition: -5.3%
[1]; compound 0.01 µM
  inhibition: 3.6%
[1]; compound 0.1 µM
  inhibition: 26.3%
FER (human); compound 0.01 µM
  inhibition: -6.3%
FER (human); compound 0.1 µM
  inhibition: 0.8%
FYN (human); compound 0.01 µM
  inhibition: -0.4%
FYN (human); compound 0.1 µM
  inhibition: -7.3%
ABL1 (human); compound 0.01 µM
  inhibition: -1.8%
ABL1 (human); compound 0.1 µM
  inhibition: 5.5%
PRKCZ (human); compound 0.01 µM
  inhibition: -0.3%
PRKCZ (human); compound 0.1 µM
  inhibition: 4.6%
MAPK14 (human); compound 0.01 µM
  inhibition: -1.2%
MAPK14 (human); compound 0.1 µM
  inhibition: -6.5%
BTK (human); compound 0.01 µM
  inhibition: 5.6%
BTK (human); compound 0.1 µM
  inhibition: 5.1%
MARK3 (human); compound 0.01 µM
  inhibition: -1.6%
MARK3 (human); compound 0.1 µM
  inhibition: -2.2%

## Cn1cc(-c2cnc3ccc4ccc(CS(=O)(=O)CCc5ccccn5)cc4c(=O)c3c2)cn1
SGK1 (human); compound 0.1 µM
  inhibition: 1.7%
SGK1 (human); compound 1.0 µM
  inhibition: -6.4%
PRKCA (human); compound 0.1 µM
  inhibition: 21.9%
PRKCA (human); compound 1.0 µM
  inhibition: -3%
MAPKAPK2 (human); compound 0.1 µM
  inhibition: -14.7%
MAPKAPK2 (human); compound 1.0 µM
  inhibition: -4.4%
CAMK2G (human); compound 0.1 µM
  inhibition: -0.2%
CAMK2G (human); compound 1.0 µM
  inhibition: -1.5%
PRKCB2 (human); compound 0.1 µM
  inhibition: -4.2%
PRKCB2 (human); compound 1.0 µM
  inhibition: -10.6%
RPS6KA5 KD1 KD2 (human); compound 0.1 µM
  inhibition: -3.5%
RPS6KA5 KD1 KD2 (human); compound 1.0 µM
  inhibition: -7.4%
FGFR4 (human); compound 0.1 µM
  inhibition: -0.6%
FGFR4 (human); compound 1.0 µM
  inhibition: 15.7%
IGF1R (human); compound 0.1 µM
  inhibition: -23.8%
IGF1R (human); compound 1.0 µM
  inhibition: -10%
PRKCQ (human); compound 0.1 µM
  inhibition: -11.5%
PRKCQ (human); compound 1.0 µM
  inhibition: -19.7%
SGK2 (human); compound 0.1 µM
  inhibition: -0.4%
SGK2 (human); compound 1.0 µM
  inhibition: -3.6%
SGK3 (human); compound 0.1 µM
  inhibition: -10.4%
SGK3 (human); compound 1.0 µM
  inhibition: 6.2%
BRSK1 (human); compound 0.1 µM
  inhibition: -11.7%
BRSK1 (human); compound 1.0 µM
  inhibition: 0.3%
PRKG1 (human); compound 0.1 µM
  inhibition: 4.3% and 6.4%
PRKG1 (human); compound 1.0 µM
  inhibition: -3.3% and -9.8%
AKT3 (human); compound 0.1 µM
  inhibition: 6.4%
AKT3 (human); compound 1.0 µM
  inhibition: -5.8%
RPS6KB1 (human); compound 0.1 µM
  inhibition: -19.5%
RPS6KB1 (human); compound 1.0 µM
  inhibition: -2.1%
MAPK3 (human); compound 0.1 µM
  inhibition: -10.8%
MAPK3 (human); compound 1.0 µM
  inhibition: -1.3%
CSNK1A1 (human); compound 0.1 µM
  inhibition: -8.6%
CSNK1A1 (human); compound 1.0 µM
  inhibition: -0.9%
PRKD1 (human); compound 0.1 µM
  inhibition: -3.6%
PRKD1 (human); compound 1.0 µM
  inhibition: -6.6%
EGFR (human); compound 0.1 µM
  inhibition: -5.8%
PRKCH (human); compound 0.1 µM
  inhibition: -8.3%
PRKCH (human); compound 1.0 µM
  inhibition: -5.7%
CSNK1D (human); compound 0.1 µM
  inhibition: 7.8%
CSNK1D (human); compound 1.0 µM
  inhibition: 8.9%
AURKA (human); compound 0.1 µM
  inhibition: 15.8%
AURKA (human); compound 1.0 µM
  inhibition: 48%
PRKCG (human); compound 0.1 µM
  inhibition: -2%
PRKCG (human); compound 1.0 µM
  inhibition: -3.4%
BMX (human); compound 0.1 µM
  inhibition: -7.2%
BMX (human); compound 1.0 µM
  inhibition: 8.8%
MARK1 (human); compound 0.1 µM
  inhibition: 1.2%
MARK1 (human); compound 1.0 µM
  inhibition: -13.9%
RPS6KA4 KD1 KD2 (human); compound 0.1 µM
  inhibition: -2.5%
RPS6KA4 KD1 KD2 (human); compound 1.0 µM
  inhibition: -1.8%
[1]; compound 0.1 µM
  inhibition: 4.6%
[1]; compound 1.0 µM
  inhibition: 9.3%
FER (human); compound 0.1 µM
  inhibition: -6.8%
FYN (human); compound 0.1 µM
  inhibition: -11.5%
FYN (human); compound 1.0 µM
  inhibition: -2.5%
ABL1 (human); compound 0.1 µM
  inhibition: 0.2%
ABL1 (human); compound 1.0 µM
  inhibition: 11.6%
PRKCZ (human); compound 0.1 µM
  inhibition: 3.2%
PRKCZ (human); compound 1.0 µM
  inhibition: 6.8%
MAPK14 (human); compound 0.1 µM
  inhibition: 5.3%
MAPK14 (human); compound 1.0 µM
  inhibition: -2.7%
BTK (human); compound 0.1 µM
  inhibition: -2.1%
BTK (human); compound 1.0 µM
  inhibition: 22%
MARK3 (human); compound 0.1 µM
  inhibition: -7.9%
MARK3 (human); compound 1.0 µM
  inhibition: -4.1%
